7 molecules from patent publication US20250325542A1, “INHIBITORS OF ANTIMOCROBIAL RESISTANCE AND METHOS USING SAME” (Baylor College of Medicine, priority 2022, published 2025) can be followed below.

Entries after “also recorded” stand apart in the source; their conditions may differ. Like-named read-outs stand apart in the source and are kept apart here.

Data set [1] concerns the target T1, KPC-2 (Klebsiella pneumoniae, UniProt Q9F663). The data set is described as follows: KPC-2 enzyme inhibition (Ki). It counts as biochemical. The text has this: Several hits were identified from the qDOS38_1 library against the KPC-2 enzyme. All compounds were synthesized without linker C1a. Among the hit compounds, CDD-2312 had the highest enrichment score of 5.9 but a lower count number of 115 compared to other libraries screened at the same time.

Data set [2] concerns the target T1, KPC-2. The data set is described as follows: DNA-encoded library affinity selection against KPC-2. It counts as binding. The note with it: qDOS38_1 library, on-DNA.
In a further data set the test system is E. coli NDM-1/XL-1B. Briefly: Accumulation assay in bacteria (LC-MS). It counts as cell-based. The settings on record: 50 μM compound, 10 min at 37° C.; tetracycline positive, clindamycin negative control. As for the experimental part: Briefly, the overnight culture of E. coli NDM-1/XL-1B was inoculated into fresh Luria Bertani (LB) broth (1:100 v/v) and incubated at 37° C. with shaking to an optical density (OD600) of 0.55-0.60. The bacteria were pelleted by centrifugation and washed with 1× phosphate-buffered saline (PBS) before being re-suspended in PBS (28 times concentrated). The colony-forming units (CFUs) were determined by a calibration curve. Re-suspended cells were aliquoted into 1.5 mL Eppendorf tubes and recovered at 37° C. for 5 min. The compounds and controls were added with a final concentration of 50 μM. The mixtures were incubated at 37° C. for 10 min and the OD600 values were recorded to note the growth changes. To collect the cell pellets, 800 μL bacteria-compound mixtures were layered onto 700 μL silicone oil (9:1 v/v, AR20/Sigma High Temperature, pre-cooled at −80° C.) and bacteria were pelleted through the silicone oil by centrifugation. Cell pellets were re-suspended in 200 μL H2O and lysed using three freeze-thaw cycles of 3 min in liquid nitrogen followed by 3 min in a 65° C. water bath. Supernatants were collected after centrifuging and the cell debris was re-suspended in 100 μL methanol. The mixtures from cell debris were then centrifuged, and the methanol supernatants were combined with the supernatants from the last step before LC-MS analysis.
Two NL of supernatant was injected into a Thermo TSQ Quantis MS coupled with a Thermo Vanish UHPLC for analysis. The Phenomenex Luna C18 column (1.0 mm×50 mm, 1.7 μm) was used for resolving tested compounds with the column temperature being kept constant at 40° C. […] The compound concentrations in the samples were calculated based on their corresponding standard curves. […]
This could be partially due to the low accumulation of compounds into the periplasm and/or due to modest in vitro inhibition potency (Ki). To discern between the possibilities, the accumulation of inhibitors into bacteria was quantified using mass spectrometry. Compounds were pre-incubated with E. coli inoculum before cells were washed, lysed, and analyzed via mass spectrometry. […]

The subject of the next data set is A. baumanii. Briefly: MIC of PBP-3 screening hits against A. baumanii. It counts as cell-based. The settings on record: inhibitor alone. As for the experimental part: (§1) Similarly to KPC-2 and NDM-1, PBP-3 was screened against the β-lactamase-focused library and several hits were identified from qDOS38_2 and qDOS38_4 (Table 7). Since PBP-3 is not a β-lactamase enzyme, the inhibition assay cannot be used to determine the biochemical potency of inhibitor against PBP-3. Instead, in vivo potency was determined directly against E. coli and A. baumanii. Since all bacteria express PBP-3 naturally, other modifications to wild-type bacteria were not necessary.
(§2) Unlike β-lactamase inhibitor MIC determinations, which measure the synergy between inhibitor and antibiotic, PBP-3 inhibitor MIC determination only measures a single dimension concentration gradient of the inhibitor.

The subject of another data set is E. coli. The data set is described as follows: MIC of PBP-3 screening hits against E. coli. It counts as cell-based. The settings on record: for MIC: Escherichia coli, inhibitor alone, read-out: E. coli minimum inhibitory concentration (MIC). As for the experimental part: as §1, §2
The target in the next data set is NDM-1 (Klebsiella pneumoniae, UniProt C7C422). It counts as biochemical.
NDM-1, sequence (C7C422 whole entry, looked up, species assumed): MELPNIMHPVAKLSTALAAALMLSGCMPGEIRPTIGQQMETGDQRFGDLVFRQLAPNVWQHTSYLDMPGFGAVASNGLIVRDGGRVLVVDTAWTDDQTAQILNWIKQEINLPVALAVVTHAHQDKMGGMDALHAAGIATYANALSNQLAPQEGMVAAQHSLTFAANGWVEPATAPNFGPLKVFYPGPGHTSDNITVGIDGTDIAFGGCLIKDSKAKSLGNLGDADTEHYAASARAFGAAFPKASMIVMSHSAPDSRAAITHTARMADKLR
In the next data set the test system is E. coli expressing NDM-1. It counts as cell-based. The note with it: Ins = insoluble.
Data set [3] in a line: Solubility observed in assay media. It counts as physicochemical.

T1 sequence (Q9F663 whole entry, looked up, species assumed): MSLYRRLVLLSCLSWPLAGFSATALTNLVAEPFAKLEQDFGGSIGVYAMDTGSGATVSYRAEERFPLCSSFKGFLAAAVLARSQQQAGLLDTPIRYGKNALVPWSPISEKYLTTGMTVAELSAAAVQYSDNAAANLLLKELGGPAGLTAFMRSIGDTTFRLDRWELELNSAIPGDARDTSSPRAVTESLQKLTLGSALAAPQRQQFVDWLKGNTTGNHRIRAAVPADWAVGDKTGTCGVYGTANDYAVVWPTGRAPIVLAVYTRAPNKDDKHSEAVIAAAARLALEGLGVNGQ

Molecule `COc1cc(-c2cnc(NCC(=O)O)nc2)cc(C=O)c1OCC(=O)N(C)C` [CDD-2312, (5-(4-(2-(dimethylamino)-2-oxoethoxy)-3-formyl-5-methoxyphenyl)pyrimidin-2-yl)glycine] came in with a Ki on KPC-2 [1] of 657000 ± 123000 nM. Further, on KPC-2 [2], the enrichment score stood at 5.9.

`CNCc1cccc(NCc2ccc(-c3ccc(C(=O)O)c(O)c3)o2)c1` [CDD-2376, 2-hydroxy-4-(5-(((3-((methylamino)methyl)phenyl)amino)methyl)furan-2-yl)benzoic acid]: in the data set with E. coli NDM-1/XL-1B, the accumulation in bacteria entry was “lowest amount of accumulation; also recorded: lowest of all three compounds tested and comparable to that of the negative control”.

As for `Nc1cccc(NCc2ccc(-c3cncc(C(=O)O)c3)cc2)c1` [CDD-2396, 5-(4-(((3-aminophenyl)amino)methyl)phenyl)nicotinic acid], the “effect against A. baumanii” value in the data set on A. baumanii is on record as “Neither of the compounds had any significant effect”. Besides, the MIC in the data set with E. coli was determined as 256 µg/mL.

As for `NC(Cc1ccc(O)c(O)c1)C(=O)NCCc1ccccc1` (centres unmarked) [CDD-2507, 2-amino-3-(3,4-dihydroxyphenyl)-N-phenethylpropanamide], the “effect against A. baumanii” value in the data set on A. baumanii is given as “Neither of the compounds had any significant effect”. Besides, the “growth of bacteria below the MIC” value in the data set on E. coli (16 μg/mL, E. coli) is listed as “slower growth of bacteria”. Besides, the MIC with E. coli amounted to 128 µg/mL.

Turning to `NCc1cccc(NCc2cccc(-c3ccc(C(=O)O)c(O)c3)c2)c1` [CDD-2616, 3′-(((3-(aminomethyl)phenyl)amino)methyl)-3-hydroxy-[1,1′-biphenyl]-4-carboxylic acid], on NDM-1, the inhibition constant Ki stood at 900 ± 440 nM and the “NDM-1 Ki (μM)” value is listed as “sub-micromolar inhibition potency”. Moreover, the accumulation in bacteria result in the data set with E. coli NDM-1/XL-1B was “comparable to that of the positive control”.

For the molecule `NCc1cccc(NCc2cccc(-c3ccc(C(=O)O)c(O)c3)n2)c1` [CDD-2653, 4-(6-(((3-(aminomethyl)phenyl)amino)methyl)pyridin-2-yl)-2-hydroxybenzoic acid], in the data set with E. coli NDM-1/XL-1B, the accumulation in bacteria result was “much higher”.

For the molecule `Cc1cc(CNc2cccc(CN)c2)cc(-c2ccc(C(=O)O)c(O)c2)c1` [CDD-2997, 3′-(((3-(aminomethyl)phenyl)amino)methyl)-3-hydroxy-5′-methyl-[1,1′-biphenyl]-4-carboxylic acid], the affinity on NDM-1, expressed as Ki, was 530 ± 370 nM. In addition, the “Imipenem MIC (μg/mL)” value in the data set on E. coli expressing NDM-1 ([inhibitor] 64 μg/mL) and with E. coli expressing NDM-1 ([inhibitor] 128 μg/mL) was “Ins” each time. Also, the “solubility in aqueous solution” value in data set [3] (MIC medium, above 64 μg/mL) was “low solubility in aqueous solution”. Also, in data set [3] (at the accumulation assay concentration (50 μM)), the solubility in buffer entry is “low solubility in buffer”.
